Like-named read-outs stand apart in the source and are kept apart here.
Test system: SLC16A11
Assay: Compound treatment, SLC16A11 expression by ddPCR in SNU761 cells
Assay type: cell-based, human
Procedure: A small number of the compounds that made the strongest positive connections to the SLC16A11 gene expression signature were selected and tested. […] Methotrexate was also included, which had been annotated as a dihydrofolate reductase inhibitor. SNU761 cells (derived from a human hepatocellular carcinoma) and NCIH716 cells (derived from a human cecum adenocarcinoma), which both express SLC16A11, were treated with the compounds. The same compound concentrations and treatment times were used as in the LINCS dataset experiments. […] For normalization, a different housekeeper gene, HPRT1, was used and obtained similar results with the mTOR inhibitors (FIGS. 14A and 14B).
From the total list of compounds, 59 readily available compounds were selected from the 79 compounds with the largest connectivity scores to the query signature and 20 middle compounds with connectivity scores centered on 0 (FIG. 15A) and then treated SNU761 cells at the same doses and treatment times as were used in the LINCS dataset. It was expected that the top compounds would be enriched for compounds that increased SLC16A11 expression. […] The results were aligned with the expectations (FIG. 15B). Hierarchical clustering of the SLC16 expression profiles generated by the compound treatments are shown by the heat map in FIG. 15C.
SNU761 (human hepatocellular carcinoma) and NCIH716 (human cecum adenocarcinoma) were cultured in RPMI Medium 1640 supplemented with 10% Fetal Bovine Serum (FBS), 100 μg/ml Streptomycin and 100 U/ml Penicillin. Cells were grown in a humidified CO2 incubator, at 37° C.
For the unbiased approach taken to investigate the compounds that connected to the SLC16A11 gene expression signature, compounds were obtained from compound management at the Broad Institute.
SNU761 and NCIH716 cells were plated into 96 well plates at a density of 20,000 cells per well. Hepatocytes were plated into collagen coated 96 well plates (Corning, 354408) at a density of 50,000 cells per well. After 24 hours, cells were treated with compounds at a final concentration of 10 μM or vehicle control for the appropriate amount of time.
At the time of collection, cells in 96 well plates were lysed by directly adding 50 μL of RLT buffer (Qiagen). 75 μL of AMPure XP beads, diluted by a factor of 5 in polyethylene glycol, were then added to bind nucleic acids. One wash with polyethylene glycol was then performed. DNase treatment (Qiagen) was carried out according to the manufacturer's protocol in a final volume of 50 μL. 100 μL of polyethylene glycol was added after the DNase treatment to crowd nucleic acids back onto the beads. Two washes with 80% ethanol were performed and residual ethanol was removed. RNA was then eluted in water.
RNA was DNase treated and converted into cDNA using the High-Capacity RNA-to-cDNA kit (Thermo Fisher Scientific). The following FAM-labeled TaqMan Real-Time PCR assays (Thermo Fisher Scientific) were used to quantify gene expression: SLC16A11 (Hs00601062_g1), SLC16A13 (Hs00416832_m1), SLC16A1 (Hs01560299_m1). The VIC-labeled TaqMan Real-Time assays TBP (Hs00427620_m1) or HPRT1 (Hs02800695_m1) were used for normalization. Droplets were generated and analyzed using a QX200 Droplet Generator and Reader system (BioRad). Data was extracted using QuantaSoft (BioRad) and analyzed using Microsoft Excel.

[1] = SNU761 cells, same doses and treatment times as in the LINCS dataset

| Compound | avg_fc (SLC16A11 expression, compound treated vs DMSO treated cells) [1] | also measured |
| --- | --- | --- |
| NC(=O)Nc1cc(-c2cccc(F)c2)sc1C(=O)N[C@H]1CCCNC1 [AZD-7762, 3-[(aminocarbonyl)amino]-5-(3-fluorophenyl)-N-(3S)-3-piperidinyl-2-thiophenecarboxamide, reference compound] | 4.924 | increase in SLC16A11 expression, compound treated compared to DMSO treated cells (SNU761 cells, unbiased test of 59 top and 20 middle LINCS compounds, LINCS doses and times): about 5 fold |
| OCCOCCN1CCN(C2=Nc3ccccc3Sc3ccccc32)CC1 [quetiapine] | 1.019 |  |
| O=C1OC2(c3ccccc31)c1cc(I)c(O)c(I)c1Oc1c2cc(I)c(O)c1I [erythrosine] | 0.649 |  |
| O=C(NC[C@H](O)CO)c1ccncc1Nc1ccc(I)cc1F [AS-703026] | 1.68 |  |
| Nc1ccc(-c2ccc3ncc4ccc(=O)n(-c5cccc(C(F)(F)F)c5)c4c3c2)cn1 [torin-2] | 2.843 |  |
| Cn1cnc2c(F)c(Nc3ccc(Br)cc3Cl)c(C(=O)NOCCO)cc21 [selumetinib] | 1.964 |  |
| OC1CCC(Nc2ncc3nc(Nc4c(F)cc(F)cc4F)n([C@@H]4CCOC4)c3n2)CC1 (stereo partly drawn) [CG-930] | 1.337 |  |
| COC(=O)Nc1ccc(-c2nc(N3CCOCC3)c3cnn(C4CCN(C(=O)OC)CC4)c3n2)cc1 [WYE-354, methyl 4-[6-[4-(methoxycarbonylamino)phenyl]-4-morpholin-4-ylpyrazolo[3,4-d]pyrimidin-1-yl]piperidine-1-carboxylate, reference compound] | 3.517 |  |
| c1ccc2c(CCNc3ccc(Nc4ccncc4)cc3)c[nH]c2c1 [serdemetan] | 0.6384 |  |
| Nc1[nH]nc2nnc(-c3c(-c4ccccc4)nn4ccccc34)cc12 [FR-180204] | 0.915 |  |
| CCCC[C@@H](C=O)NC(=O)[C@H](CC(C)C)NC(=O)OCc1ccccc1 [calpeptin] | 1.034 |  |
| CCCS(=O)(=O)Nc1ccc(F)c(C(=O)c2c[nH]c3ncc(-c4ccc(Cl)cc4)cc23)c1F [vemurafenib] | 1.368 |  |
| Cc1cnc(NC(=O)C2=C(O)c3ccccc3S(=O)(=O)N2C)s1 [meloxicam] | 0.9414 |  |
| bisindolylmaleimide | 0.4265 |  |
| Cc1cccc(CCN2CCC(C(=O)c3ccc(NS(C)(=O)=O)cc3)CC2)n1 [E-4031] | 0.9411 |  |
| COc1cccc(-c2cc(=O)c3ccccc3o2)c1N [PD-98059] | 0.7929 |  |
| CO[C@H]1C[C@@H]2CC[C@@H](C)[C@@](O)(O2)C(=O)C(=O)N2CCCC[C@H]2C(=O)O[C@H]([C@H](C)C[C@@H]2CC[C@@H](O)[C@H](OC)C2)CC(=O)[C@H](C)/C=C(\C)[C@@H](O)[C@@H](OC)C(=O)[C@H](C)C[C@H](C)/C=C/C=C/C=C/1C [rapamycin, reference compound] | 1.662 |  |
| CO[C@H]1C[C@@H]2CC[C@@H](C)[C@@](O)(O2)C(=O)C(=O)N2CCCC[C@H]2C(=O)O[C@H]([C@H](C)C[C@@H]2CC[C@@H](OP(C)(C)=O)[C@H](OC)C2)CC(=O)[C@H](C)/C=C(\C)[C@@H](O)[C@@H](OC)C(=O)[C@H](C)C[C@H](C)/C=C/C=C/C=C/1C [deforolimus, reference compound] | 1.903 |  |
| Cc1[nH]c(/C=C2\C(=O)Nc3ccc(S(=O)(=O)N(C)c4cccc(Cl)c4)cc32)c(C)c1C(=O)N1CCN(C)CC1 [SU-11274] | 1.059 |  |
| N#CC(C#N)=C(N)/C(C#N)=C/c1ccc(O)cc1 [tyrphostin-AG-112] | 0.7594 |  |
| COc1cc(Nc2ncc(F)c(Nc3ccc4c(n3)N(COP(=O)(O)O)C(=O)C(C)(C)O4)n2)cc(OC)c1OC [fostamatinib] | 3.274 |  |
| CNC(=O)Nc1ccc(-c2nc(N3CC4CCC(C3)O4)c3cnn(C4CCC5(CC4)OCCO5)c3n2)cc1 [WYE-125132] | 3.336 |  |

| Compound | avg_fc (SLC16A11 expression, compound treated vs DMSO treated cells) [1] | also measured |
| --- | --- | --- |
| CN1CCN(C2=Nc3cc(Cl)ccc3Nc3ccccc32)CC1 [clozapine] | 0.9466 |  |
| COCC(=O)NC/C=C/c1ccc2ncnc(Nc3ccc(Oc4ccc(C)nc4)c(C)c3)c2c1 [CP-724714] | 1.37 |  |
| N#CC(=C(/N)Sc1ccccc1N)/C(C#N)=C(\N)Sc1ccccc1N [U0126] |  | avg_fc (SLC16A11 expression, compound treated vs DMSO treated cells): 1.885 |
| C[C@H]1O[C@@H](O[C@H]2[C@@H](O)C[C@H](O[C@H]3[C@@H](O)C[C@H](O[C@H]4CC[C@@]5(C)[C@H](CC[C@@H]6[C@@H]5CC[C@]5(C)[C@@H](C7=CC(=O)OC7)CC[C@]65O)C4)O[C@@H]3C)O[C@@H]2C)C[C@H](O)[C@@H]1O [digitoxin] | 1.375 |  |
| O=c1cc(N2CCOCC2)oc2c1ccc1ccccc12 [NU-7026] | 1.12 |  |
| NC(=O)c1ccc(N(C(N)=O)c2c(F)cccc2F)nc1-c1ccc(F)cc1F [VX-702] | 0.8683 |  |
| Clc1ccc(COC(Cn2ccnc2)c2ccc(Cl)cc2Cl)cc1 (stereo not drawn) [econazole] | 1.178 |  |
| O=C1CC[C@@]2(O)[C@H]3Cc4ccc(O)c5c4[C@@]2(CCN3CC2CC2)[C@H]1O5 [naltrexone] | 1.183 |  |
| COc1cc2nccc(Oc3ccc(NC(=O)Nc4cc(C)on4)c(Cl)c3)c2cc1OC [tivozanib] | 1.647 |  |
| COCCCOc1cc(C[C@@H](C[C@H](N)[C@@H](O)C[C@H](C(=O)NCC(C)(C)C(N)=O)C(C)C)C(C)C)ccc1OC [aliskiren] | 0.8853 |  |
| COc1ccc(CNC(=O)/C=C/c2ccc3[nH]cc(CCN(C)C)c3c2)cc1 [GR-46611] | 0.6609 |  |
| CC(C)COCC(CN(Cc1ccccc1)c1ccccc1)N1CCCC1 (stereo not drawn) [bepridil] | 0.8545 |  |
| Cn1cc(C(=O)C(=O)NC2CN3CCC2CC3)c2ccccc21 (stereo not drawn) [RS-56812] | 0.9914 |  |
| Nc1nc(Cl)nc2c1ncn2[C@H]1C[C@H](O)[C@@H](CO)O1 [cladribine] | 0.5994 |  |
| CO[C@H]1C[C@@H]2CC[C@@H](C)[C@@](O)(O2)C(=O)C(=O)N2CCCC[C@H]2C(=O)O[C@H]([C@H](C)C[C@@H]2CC[C@@H](OC(=O)C(C)(CO)CO)[C@H](OC)C2)CC(=O)[C@H](C)/C=C(\C)[C@@H](O)[C@@H](OC)C(=O)[C@H](C)C[C@H](C)/C=C/C=C/C=C/1C [temsirolimus] | 1.372 |  |
| Nc1ccn([C@H]2CC[C@@H](CO)O2)c(=O)n1 [zalcitabine] | 1.01 |  |
| COc1ccc2ccc(=O)oc2c1 [herniarin] | 0.9563 |  |
| CCC(=O)N1CCN(c2ccc(-n3c(=O)ccc4cnc5ccc(-c6cnc7ccccc7c6)cc5c43)cc2C(F)(F)F)CC1 [torin-1] | 2.84 |  |
| Nc1nc(N)c2nc(-c3cccc(O)c3)c(-c3cccc(O)c3)nc2n1 [TG100-115] | 1.086 |  |
| Oc1cccc(-c2nc(N3CCOCC3)c3oc4ncccc4c3n2)c1 [PI-103, 3-(6-morpholin-4-yl-8-oxa-3,5,10-triazatricyclo[7.4.0.0^2,7]trideca-1 (9),2(7),3,5,10,12-hexaen-4-yl)phenol, reference compound] | 2.453 |  |
| C[C@@H]1C[C@@H]([C@H](O)CC2CC(=O)NC(=O)C2)C(=O)[C@@H](C)C1 [cycloheximide] | 1.243 |  |
| c1nc2nc(Nc3ccc(N4CCOCC4)cc3)nc(NC3CCCCC3)c2[nH]1 [reversine] | 3.235 |  |
